Assay results taken from article PMC8124774, “Tuning Anti-Biofilm Activity of Manganese(II) Complexes: Linking Biological Effectiveness of Heteroaromatic Complexes of Alcohol, Aldehyde, Ketone, and Carboxylic Acid with Structural Effects and Redox Activity” (International Journal of Molecular Sciences, 2021).
Several values for one entry are separate records, joined by “and”; a condition that tells them apart may be missing. Equal entries are not always repeated.

Key:
[1] = biological target: T1, catalase from the bovine liver (Bos taurus, UniProt P00432); test: catalase activity in the presence of the Mn(II) complexes (absorbance at 240 nm); type: biochemical; settings: 0.5 mM complex, vs catalase alone
T1 construct: The catalase from the bovine liver solution; purchased Sigma–Aldrich; host or cells: bovine liver
T1 sequence (P00432 2-527 limits assumed): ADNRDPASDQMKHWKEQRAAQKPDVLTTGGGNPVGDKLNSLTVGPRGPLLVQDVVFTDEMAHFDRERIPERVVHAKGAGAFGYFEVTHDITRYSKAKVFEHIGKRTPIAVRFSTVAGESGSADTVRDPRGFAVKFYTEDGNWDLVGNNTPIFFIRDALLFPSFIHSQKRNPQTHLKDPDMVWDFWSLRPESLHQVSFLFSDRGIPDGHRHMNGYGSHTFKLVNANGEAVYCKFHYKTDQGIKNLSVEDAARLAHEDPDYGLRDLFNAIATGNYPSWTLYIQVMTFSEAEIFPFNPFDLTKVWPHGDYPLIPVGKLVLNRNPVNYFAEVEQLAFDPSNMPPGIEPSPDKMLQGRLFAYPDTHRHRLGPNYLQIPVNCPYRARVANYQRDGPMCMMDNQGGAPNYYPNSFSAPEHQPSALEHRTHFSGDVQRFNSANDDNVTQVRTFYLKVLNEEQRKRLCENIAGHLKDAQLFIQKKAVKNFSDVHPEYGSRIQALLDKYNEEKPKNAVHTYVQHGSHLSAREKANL
Protocol: First, the complexes were incubated with the catalase in the presence of a phosphate buffer, and then hydrogen peroxide was added thereto. To study the effect of the manganese complexes on the activity of CAT, its performance, in the presence of similar concentrations of the Mn complexes (0.5 mM), was investigated. The percentage of absorbance reduction over time was recorded at 240 nm. The positive control was the catalase sample in the absence of the Mn(II) complex. Figure 12 illustrates the effect of the Mn(II) complexes on the catalase activity.
The effect of the manganese complexes on the activity of catalase (CAT) was determined using the spectrophotometric method. The decrease in absorbance due to hydrogen peroxide depletion was recorded at 240 nm by the V-780 UV-Vis/NIR spectrophotometer (Jasco, Easton, MD, USA). The tests were performed in a 50-mM potassium phosphate buffer (PBS) at 37 °C, pH = 7.0. The catalase from the bovine liver solution (Sigma–Aldrich, St. Louis, MO, USA, lyophilized powder, ≥10,000 units/mg protein) was prepared in the PBS buffer as an initial dilution of ~1000 units/mL at 37 °C. The hydrogen peroxide solution, approximately 0.03% (w/w), was prepared by dilution in the PBS buffer to achieve the absorbance close to 1 a.u, and the PBS was used as a blank. The manganese complexes were diluted in the PBS buffer to stock the concentration of 1 mM. The mixture of 500 µL of the hydrogen peroxide, 1 µL of the catalase (final 1U of catalase activity), and 500 µL of the manganese complexes, previously incubated in a water bath at 37 °C, was added to a quartz cuvette (10 mm, 1 mL), closed by a cover, and placed in the spectrophotometer. The absorbance readings were performed in 10-s intervals during the first minute of the incubation time at 37 °C. The results were presented as the dependence on the percentage of the absorbance reduction over time.

[2] = test system: Pseudomonas aeruginosa PAO1; test: broth microdilution MIC, P. aeruginosa PAO1; type: cell-based; settings: P. aeruginosa PAO1, planktonic cells
Protocol: (§1) The antimicrobial activities of the heteroaromatic ligands, Mn(II) complexes, and commercially available drug streptomycin were tested against standard bacterial strains: Staphylococcus aureus ATCC 6538P, Escherichia coli ATCC 8739, Pseudomonas aeruginosa PAO1 (biofilm model strain), and Pseudomonas aeruginosa LES B58 (clinical isolate). The P. aeruginosa PAO1 and LES B58 isolates were derived from the International Pseudomonas aeruginosa Reference Panel (http://bccm.belspo.be/about-us/bccm-lmg, accessed on 30 March 2021).
(§2) All bacteria species were cultivated in trypticase soy broth (TSB) medium (Biocorp, Warsaw, Poland) for 18 h at 37 °C with shaking (160 rpm). Overnight cultures of bacteria were diluted 1:100 into fresh TSB medium and then placed in each of the 96 wells of a microtiter transparent plate (Greiner, Monroe, NC, USA). The manganese(II) complexes—[Mn-pyOH-SO4]n, Mn-imCHO-NO3, Mn-imCHO-Cl, Mn-dipyCO-NO3—and the ligands—pyOH, pyCOOH—were prepared by dissolving compounds in distilled water. […] The starting stock solution was of 2-mM concentration.
(§3) The quantitative assay of the antibacterial activity was performed by the broth microdilution method, in 96-well microtiter plates, in order to establish the minimum inhibitory concentration (MIC). To this purpose, serial two-fold dilutions of the compounds ranging between 1 and 0.0625 mM were made. The details of the experiment were presented in our previous paper.

[3] = test system: Staphylococcus aureus ATCC 6538P; test: broth microdilution MIC, S. aureus; type: cell-based; settings: S. aureus, planktonic cells
Protocol: as §1, §2, §3

| SMILES | Action on catalase activity [1] | MIC [2] | MIC [3] |
| --- | --- | --- | --- |
| Cc1[nH]cnc1C=O.Cc1[nH]cnc1C=O.O=[N+]([O-])[O-].O=[N+]([O-])[O-].[Mn+2] [Mn-imCHO-NO3] | promote the catalase activity | > 1 mM and > 399 μg/ml |  |
| O=[N+]([O-])[O-].O=[N+]([O-])[O-].OCc1ccccn1.OCc1ccccn1.[Mn+2] [Mn-pyOH-NO3] | promote the catalase activity | > 1 mM and > 397 μg/ml | > 1 mM and > 397 μg/ml |
